Assay results published in ChEMBL document CHEMBL4706519, “Evaluation of N-phenyl-2-aminothiazoles for treatment of multi-drug resistant and intracellular Staphylococcus aureus infections” (Eur J Med Chem, 2020).
≈ marks a conversion by molar mass, not a printed value.

Experiments:
[1] = system: Staphylococcus epidermidis; assay: Ratio of MBC to MIC for methicillin-resistant Staphylococcus epidermidis NRS101 assessed as inhibition of bacterial growth measured after 18 to 20 hrs by CLSI protocol based broth microdilution method; format: functional; conditions: time 18-20 hrs
[2] = Selectivity index, ratio of maximum non-toxic concentration for human Caco-2 cells to MIC for methicillin-resistant Staphylococcus aureus USA300 NRS384; format: toxicity
Listeria monocytogenes [3] = assay: Antibacterial activity against Listeria monocytogenes ATCC 19111 assessed as inhibition of bacterial growth measured after 18 to 20 hrs by CLSI protocol based broth microdilution method; format: functional; conditions: time 18-20 hrs
[4] = Selectivity index, ratio of maximum non-toxic concentration for human Caco-2 cells to MIC for methicillin-resistant Staphylococcus aureus USA700 NRS386; format: toxicity
Streptococcus pneumoniae [5] = assay: Antibacterial activity against methicillin-resistant Streptococcus pneumoniae ATCC 700677 assessed as inhibition of bacterial growth measured after 18 to 20 hrs by CLSI protocol based broth microdilution method; format: functional; conditions: time 18-20 hrs
Staphylococcus aureus [6] = assay: microbe, parasite or virus in culture; conditions: USA500 NRS385
[7] = Selectivity index, ratio of maximum non-toxic concentration for human Caco-2 cells to MIC for methicillin-resistant Staphylococcus aureus USA500 NRS385; format: toxicity
Staphylococcus aureus [8] = assay: microbe, parasite or virus in culture; conditions: NRS119
Staphylococcus aureus [9] = assay: microbe, parasite or virus in culture; conditions: ATCC 6538
Staphylococcus aureus [10] = assay: Antibacterial activity against methicillin-resistant Staphylococcus aureus USA400 NRS123 infected in mouse J774 cells assessed as log reduction in intracellular bacterial burden at 2 x MIC measured after 24 hrs; format: functional
Staphylococcus aureus [11] = assay: Antibacterial activity against methicillin-resistant Staphylococcus aureus USA400 NRS123 infected in mouse J774 cells assessed as reduction in intracellular bacterial burden at 2 x MIC measured after 24 hrs relative to control; format: functional
Staphylococcus aureus [12] = assay: Antibacterial activity against vancomycin-resistant Staphylococcus aureus 12 assessed as inhibition of bacterial growth measured after 18 to 20 hrs by CLSI protocol based broth microdilution method; format: functional; conditions: time 18-20 hrs
Streptococcus pneumoniae [13] = assay: Antibacterial activity against cephalosporin-resistant Streptococcus pneumoniae ATCC 51916 assessed as inhibition of bacterial growth measured after 18 to 20 hrs by CLSI protocol based broth microdilution method; format: functional; conditions: time 18-20 hrs
Staphylococcus aureus [14] = assay: Ratio of MBC to MIC against methicillin-sensitive Staphylococcus aureus NRS107 assessed as inhibition of bacterial growth measured after 18 to 20 hrs by CLSI protocol based broth microdilution method; format: functional; conditions: time 18-20 hrs
Staphylococcus aureus [15] = assay: Antibacterial activity against methicillin-resistant Staphylococcus aureus USA400 NRS123 infected in mouse J774 cells assessed as log reduction in intracellular bacterial burden at 4 x MIC measured after 24 hrs; format: functional
[16] = system: Staphylococcus epidermidis; assay: Antibacterial activity against methicillin-resistant Staphylococcus epidermidis NRS101 assessed as inhibition of bacterial growth measured after 18 to 20 hrs by CLSI protocol based broth microdilution method; format: functional; conditions: time 18-20 hrs
Staphylococcus aureus [17] = assay: microbe, parasite or virus in culture; conditions: USA700 NRS386
Enterococcus faecalis [18] = assay: microbe, parasite or virus in culture; conditions: ATCC 51299
Staphylococcus aureus [19] = assay: Antibacterial activity against vancomycin-resistant Staphylococcus aureus 10 assessed as inhibition of bacterial growth measured after 18 to 20 hrs by CLSI protocol based broth microdilution method; format: functional; conditions: time 18-20 hrs
Staphylococcus aureus [20] = assay: Bactericidal activity against methicillin-resistant Staphylococcus aureus USA400 NRS123 assessed as eradication of bacterial count at 5 times MIC incubated for 2 hrs in soy broth followed by incubation for 18 to 20 hrs on agar plate by time kill assay; format: functional; conditions: time 20-22 hrs
Staphylococcus aureus [21] = assay: Ratio of MIC for methicillin-resistant Staphylococcus aureus USA400 NRS123 measured after 14th passage to MIC for methicillin-resistant Staphylococcus aureus USA400 NRS123 measured after 18 to 20 hrs by broth microdilution assay; format: functional
[22] = Cytotoxicity against human Caco-2 cells assessed as cell viability at 32 ug/ml incubated for 2 hrs by MTS assay relative to control; format: cell-based; conditions: at 32 µg/mL, read-out: Activity
Staphylococcus aureus [23] = assay: Bactericidal activity against methicillin-resistant Staphylococcus aureus USA400 NRS123 assessed as post-antibiotic effect at 5 times MIC incubated for 2 hrs followed by compound wash-out by viable plate count method; format: functional
Staphylococcus aureus [24] = assay: microbe, parasite or virus in culture; conditions: USA400 NRS123
[25] = Selectivity index, ratio of maximum non-toxic concentration for human Caco-2 cells to MIC for methicillin-resistant Staphylococcus aureus NRS119; format: toxicity
Staphylococcus aureus [26] = assay: Ratio of MIC for methicillin-resistant Staphylococcus aureus USA400 NRS123 measured after 7th passage to MIC for methicillin-resistant Staphylococcus aureus USA400 NRS123 measured after 18 to 20 hrs by broth microdilution assay; format: functional
Enterococcus faecium [27] = assay: Antibacterial activity against vancomycin-resistant Enterococcus faecium ATCC 700221 assessed as inhibition of bacterial growth measured after 18 to 20 hrs by CLSI protocol based broth microdilution method; format: functional; conditions: time 18-20 hrs
Escherichia coli [28] = assay: Antibacterial activity against wild type Escherichia coli BW25113 assessed as inhibition of bacterial growth measured after 18 to 20 hrs by broth microdilution method; format: functional; conditions: time 18-20 hrs
Enterococcus faecium [29] = assay: Ratio of MBC to MIC for vancomycin-resistant Enterococcus faecium ATCC 700221 assessed as inhibition of bacterial growth measured after 18 to 20 hrs by CLSI protocol based broth microdilution method; format: functional; conditions: time 18-20 hrs
Staphylococcus aureus [30] = assay: microbe, parasite or virus in culture; conditions: NRS107
Staphylococcus aureus [31] = assay: Bactericidal activity against methicillin-resistant Staphylococcus aureus USA400 NRS123 assessed as log reduction in viable bacteria count at 5 times MIC incubated for 2 hrs in soy broth followed by incubation for 18 to 20 hrs on agar plate by time kill assay; format: functional; conditions: time 20-22 hrs
Staphylococcus aureus [32] = assay: Ratio of MBC to MIC against methicillin-sensitive Staphylococcus aureus ATCC 6538 assessed as inhibition of bacterial growth measured after 18 to 20 hrs by CLSI broth microdilution method; format: functional; conditions: time 18-20 hrs
Staphylococcus aureus [33] = assay: Antibacterial activity against methicillin-resistant Staphylococcus aureus USA400 NRS123 infected in mouse J774 cells assessed as reduction in intracellular bacterial burden at 4 x MIC measured after 24 hrs relative to control; format: functional
Streptococcus pneumoniae [34] = assay: Ratio of MBC to MIC for methicillin-resistant Streptococcus pneumoniae ATCC 700677 assessed as inhibition of bacterial growth measured after 18 to 20 hrs by CLSI protocol based broth microdilution method; format: functional; conditions: time 18-20 hrs
Staphylococcus aureus [35] = assay: Antibacterial activity against methicillin-resistant Staphylococcus aureus USA300 NRS384 assessed as inhibition of bacterial growth measured after 18 to 20 hrs by broth microdilution method; format: functional; conditions: time 18-20 hrs
Escherichia coli [36] = assay: Antibacterial activity against Escherichia coli JW55031 harboring toIC efflux mutant assessed as inhibition of bacterial growth measured after 18 to 20 hrs by broth microdilution method; format: functional; conditions: time 18-20 hrs
Listeria monocytogenes [37] = assay: Ratio of MBC to MIC for Listeria monocytogenes ATCC 19111 assessed as inhibition of bacterial growth measured after 18 to 20 hrs by CLSI protocol based broth microdilution method; format: functional; conditions: time 18-20 hrs
J774 = assay: Cytotoxicity against mouse J774 cells assessed as cell viability at 32 ug/ml incubated for 2 hrs by MTS assay; format: cell-based; conditions: j774, 2 h, dose 32 µg/ml
[38] = Selectivity index, ratio of maximum non-toxic concentration for human Caco-2 cells to MIC for methicillin-resistant Staphylococcus aureus USA400 NRS123; format: toxicity
Enterococcus faecalis [39] = assay: Ratio of MBC to MIC for vancomycin-resistant Enterococcus faecalis ATCC 51299 assessed as inhibition of bacterial growth measured after 18 to 20 hrs by CLSI protocol based broth microdilution method; format: functional; conditions: time 18-20 hrs
Streptococcus pneumoniae [40] = assay: Ratio of MBC to MIC for cephalosporin-resistant Streptococcus pneumoniae ATCC 51916 assessed as inhibition of bacterial growth measured after 18 to 20 hrs by CLSI protocol based broth microdilution method; format: functional; conditions: time 18-20 hrs

With `C/C(=N\NC(=N)N)c1ccc(Nc2nc(-c3ccc(Cl)cc3)cs2)cc1` as the compound, how does the Ratio [1] read?
Its Ratio is 1.

What about the selectivity ratio [2] of the same compound?
The selectivity ratio was 16.

What about the MBC (Listeria monocytogenes [3]) of the same compound?
The MBC was 2 µg/mL (≈ 5.2 µM).

What about the MIC (Listeria monocytogenes [3]) of the same compound?
The MIC was 1 µg/mL (≈ 2.6 µM).

What about the selectivity ratio [4] of the same compound?
Its selectivity ratio is 16.

And the MBC (Streptococcus pneumoniae [5])?
Its MBC is 4 µg/mL (≈ 10.4 µM).

What about the MIC (Streptococcus pneumoniae [5]) of the same compound?
The MIC was 2 µg/mL (≈ 5.2 µM).

What about the MBC (Staphylococcus aureus [6]) of the same compound?
Its MBC is 2 µg/mL (≈ 5.2 µM).

What about the MIC (Staphylococcus aureus [6]) of the same compound?
Its MIC is 1 µg/mL (≈ 2.6 µM).

And the selectivity ratio [7]?
Its selectivity ratio is 16.

And the MBC (Staphylococcus aureus [8])?
The MBC was 1 µg/mL (≈ 2.6 µM).

And the MIC (Staphylococcus aureus [8])?
Its MIC is 1 µg/mL (≈ 2.6 µM).

What about the MBC (Staphylococcus aureus [9]) of the same compound?
The MBC was 1 µg/mL (≈ 2.6 µM).

What about the MIC (Staphylococcus aureus [9]) of the same compound?
The MIC was 1 µg/mL (≈ 2.6 µM).

What about the Activity (Staphylococcus aureus [10]) of the same compound?
The Activity was 0.51 log10CFU/ml.

And the “inhibition (INH)” value (Staphylococcus aureus [11])?
The value was 69%.

And the MBC (Staphylococcus aureus [12])?
Its MBC is 1 µg/mL (≈ 2.6 µM).

And the MIC (Staphylococcus aureus [12])?
Its MIC is 1 µg/mL (≈ 2.6 µM).

What about the MBC (Streptococcus pneumoniae [13]) of the same compound?
The MBC was 4 µg/mL (≈ 10.4 µM).

What about the MIC (Streptococcus pneumoniae [13]) of the same compound?
The MIC was 2 µg/mL (≈ 5.2 µM).

And the Ratio (Staphylococcus aureus [14])?
The Ratio was 1.

And the Activity (Staphylococcus aureus [15])?
The Activity was 1.56 log10CFU/ml.

What about the MBC [16] of the same compound?
Its MBC is 1 µg/mL (≈ 2.6 µM).

What about the MIC [16] of the same compound?
The MIC was 1 µg/mL (≈ 2.6 µM).

What about the MBC (Staphylococcus aureus [17]) of the same compound?
Its MBC is 4 µg/mL (≈ 10.4 µM).

And the MIC (Staphylococcus aureus [17])?
The MIC was 1 µg/mL (≈ 2.6 µM).

And the MBC (Enterococcus faecalis [18])?
The MBC was 4 µg/mL (≈ 10.4 µM).

What about the MIC (Enterococcus faecalis [18]) of the same compound?
Its MIC is 1 µg/mL (≈ 2.6 µM).

And the MBC (Staphylococcus aureus [19])?
The MBC was 1 µg/mL (≈ 2.6 µM).

What about the MIC (Staphylococcus aureus [19]) of the same compound?
The MIC was 1 µg/mL (≈ 2.6 µM).

And the Activity (Staphylococcus aureus [20])?
The Activity was 100%.

And the Ratio (Staphylococcus aureus [21])?
The Ratio was 3.

What about the viability at 2 h, 32 ug/ml [22] of the same compound?
Its viability at 2 h, 32 ug/ml is 100%.

And the PAE (Staphylococcus aureus [23])?
Its PAE is 4 h.

And the MBC (Staphylococcus aureus [24])?
The MBC was 1 µg/mL (≈ 2.6 µM).

And the MIC (Staphylococcus aureus [24])?
The MIC was 1 µg/mL (≈ 2.6 µM).

What about the selectivity ratio [25] of the same compound?
Its selectivity ratio is 16.

And the Ratio (Staphylococcus aureus [26])?
Its Ratio is 1.

What about the MBC (Enterococcus faecium [27]) of the same compound?
The MBC was 2 µg/mL (≈ 5.2 µM).

And the MIC (Enterococcus faecium [27])?
Its MIC is 1 µg/mL (≈ 2.6 µM).

And the MIC (Escherichia coli [28])?
Its MIC is 8 µg/mL (≈ 20.8 µM).

And the Ratio (Enterococcus faecium [29])?
The Ratio was 1.

And the MBC (Staphylococcus aureus [30])?
Its MBC is 1 µg/mL (≈ 2.6 µM).

And the MIC (Staphylococcus aureus [30])?
The MIC was 1 µg/mL (≈ 2.6 µM).

What about the Activity (Staphylococcus aureus [31]) of the same compound?
Its Activity is 3 log10CFU/ml.

And the Ratio (Staphylococcus aureus [32])?
Its Ratio is 1.

And the “inhibition (INH)” value (Staphylococcus aureus [33])?
Its value is 97%.

And the Ratio (Streptococcus pneumoniae [34])?
Its Ratio is 1.

What about the MIC (Staphylococcus aureus [35]) of the same compound?
The MIC was 4 µg/mL (≈ 10.4 µM).

And the MIC (Escherichia coli [36])?
The MIC was 8 µg/mL (≈ 20.8 µM).

What about the Ratio (Listeria monocytogenes [37]) of the same compound?
Its Ratio is 1.

And the Activity (J774)?
The Activity was “Non-Toxic”.

What about the selectivity ratio [38] of the same compound?
Its selectivity ratio is 16.

And the Ratio (Enterococcus faecalis [39])?
The Ratio was 1.

What about the Ratio (Streptococcus pneumoniae [40]) of the same compound?
The Ratio was 1.
